Test results from patent US20240287046A1, “COMPOUNDS AND RADIOLIGANDS FOR TARGETING NEUROTENSIN RECEPTOR AND USES THEREOF” (Full-Life Technologies HK Limited, priority 2022, published 2024).

Assays:
[1] = tested on: HT-29 tumor-bearing mice; assay: Biodistribution of radionuclide labeled complexes in HT-29 tumor-bearing mice; assay type: in vivo, BALB/c nude mice
Method: The BALB/c nude mice (Charles River, Beijing) were utilized to establish the xenografted model for biodistribution study. All animal care and experimental procedure were performed by following the animal protocols approved by the ethics committee of China Institute of Radiation Protection.
Briefly, each mouse was inoculated with approximately 4×10^6 ASPC-1 cells (human pancreatic cancer cell line) or HT-29 cells (human colorectal adenocarcinoma cell line) expressing human NTSR-1 by subcutaneous injection at rear flank. After inoculation, the xenografted tumors were allowed to grow for ˜2-4 weeks till the tumor weight reached to about 0.05 to 0.50 g (0.20 g in average).
Biodistribution studies were performed by administrating the radionuclide labeled test compound at a dose of ˜30-50 μCi (100 μL in 0.9% NaCl, ˜1.11-1.85 MBq, with specific activity 30-250 μCi/nmol) to each animal through tail vein injection.
At different time points after the administration, the mice treated with each compound were euthanized. The tissues and organs of the animals in each group were collected, excised, weighed, and analyzed in a PerkinElmer 2480 WIZARD2γ counter, and the percent injected dose (% ID) and % ID/g of each organ or tissue were calculated.

[2] = Stability of ^177Lu labeled complexes in PBS by radio-HPLC; assay type: physicochemical; conditions: incubation at room temperature over 120 h in PBS (pH 7.4) or PBS with 3 mg/mL ascorbic acid
Method: Exemplary compounds of the present application were labeled with ^177Lu to evaluate stability of the compounds after radionuclide labeling. Briefly, 4 μL exemplary compounds in DMSO stock solution (2000 μM) and 2 mCi ^177Lu (ITM Isotope Technologies Munich) were mixed together in 0.5 M NaOAc buffer (20-50 μL, pH=4.5), followed by incubation at 95° C. for 15 min. Then the labeled complexes were subject to radio-TLC analysis (a polyamide film using methanol and 1M ammonium acetate as the mobile phase, v/v: 4:1, detected by Mini Scan) and radio-HPLC analysis (column: Shim-pack GIST 5 μm 4.6*150 mm; buffer A: 0.2% formic acid H2O; buffer B: 0.1% formic acid acetonitrile; flow rate: 1 mL/min; gradient: 0-5 min: 10% B to 95% B; then 5-8 min: 95% B).
After radionuclide labeling, the complexes were diluted to ˜1.5 mCi/0.30 mL by PBS (pH 7.4) or PBS with 3 mg/mL ascorbic acid (pH 7.4). Then the diluted samples were incubated at room temperature, followed by stability analysis via radio-HPLC at 0, 4, 24, 48, 72, 120 h of incubation, respectively. FIG. 1 illustrates stability analysis of a representative complex ^177Lu—I-7.

[3] = tested on: ASPC-1 tumor-bearing mice; assay: Biodistribution of radionuclide labeled complexes in ASPC-1 tumor-bearing mice; assay type: in vivo, BALB/c nude mice
Procedure, shortened: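 Radiolabeled compound (~30-50 μCi, ~1.11-1.85 MBq, specific activity 30-250 μCi/nmol) was injected i.v. via tail vein into nude mice carrying 0.05-0.50 g subcutaneous NTSR-1-positive human tumors. At set times, tissues were collected, weighed and γ-counted; % ID and % ID/g were calculated.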

% ID/g (120 h) Stomach ([1]; Stomach, 120 h): 0.061 ± 0.03 % ID/g | % ID/g (1 h) Tumor ([1]; Tumor, 1 h): 17.04 ± 5.68 % ID/g | % ID/g (4 h) Tumor ([1]; Tumor, 4 h): 16.52 ± 12.39 % ID/g | % ID/g (24 h) Tumor ([1]; Tumor, 24 h): 20.35 ± 2.62 % ID/g | % ID/g (72 h) Tumor ([1]; Tumor, 72 h): 9.3 ± 7.53 % ID/g | % ID/g (120 h) Tumor ([1]; Tumor, 120 h): 6.42 ± 3.46 % ID/g | tumor AUC over 72 hours compared to ^177Lu—C2 [3]: significantly higher tumor AUC | % ID/g (1 h) Blood ([3]; Blood, 1 h): 9.79 ± 1.66 % ID/g | % ID/g (4 h) Blood ([3]; Blood, 4 h): 1.8 ± 0.62 % ID/g | % ID/g (24 h) Blood ([3]; Blood, 24 h): 0.07 ± 0.01 % ID/g | % ID/g (72 h) Blood ([3]; Blood, 72 h): 0.01 ± 0 % ID/g | % ID/g (1 h) Femur ([3]; Femur, 1 h): 1.65 ± 0.23 % ID/g | % ID/g (4 h) Femur ([3]; Femur, 4 h): 0.49 ± 0.25 % ID/g | % ID/g (24 h) Femur ([3]; Femur, 24 h): 0.12 ± 0.04 % ID/g | % ID/g (72 h) Femur ([3]; Femur, 72 h): 0.06 ± 0.03 % ID/g | % ID/g (1 h) Heart ([3]; Heart, 1 h): 3.47 ± 0.56 % ID/g | % ID/g (4 h) Heart ([3]; Heart, 4 h): 0.58 ± 0.32 % ID/g | % ID/g (24 h) Heart ([3]; Heart, 24 h): 0.29 ± 0.14 % ID/g | % ID/g (72 h) Heart ([3]; Heart, 72 h): 0.08 ± 0.01 % ID/g | % ID/g (1 h) Intestine ([3]; Intestine, 1 h): 2.53 ± 0.58 % ID/g | % ID/g (4 h) Intestine ([3]; Intestine, 4 h): 1.69 ± 0.45 % ID/g | % ID/g (24 h) Intestine ([3]; Intestine, 24 h): 0.62 ± 0.04 % ID/g | % ID/g (72 h) Intestine ([3]; Intestine, 72 h): 0.19 ± 0.07 % ID/g | % ID/g (1 h) Kidney ([3]; Kidney, 1 h): 2.85 ± 0.45 % ID/g | % ID/g (4 h) Kidney ([3]; Kidney, 4 h): 2.05 ± 0.48 % ID/g | % ID/g (24 h) Kidney ([3]; Kidney, 24 h): 1.2 ± 0.17 % ID/g | % ID/g (72 h) Kidney ([3]; Kidney, 72 h): 0.48 ± 0.12 % ID/g | % ID/g (1 h) Liver ([3]; Liver, 1 h): 3.93 ± 0.43 % ID/g | % ID/g (4 h) Liver ([3]; Liver, 4 h): 1.88 ± 1.00 % ID/g | % ID/g (24 h) Liver ([3]; Liver, 24 h): 0.84 ± 0.09 % ID/g | % ID/g (72 h) Liver ([3]; Liver, 72 h): 0.23 ± 0.01 % ID/g | % ID/g (1 h) Lung ([3]; Lung, 1 h): 3.12 ± 1.25 % ID/g | % ID/g (4 h) Lung ([3]; Lung, 4 h): 1.1 ± 0.49 % ID/g | % ID/g (24 h) Lung ([3]; Lung, 24 h): 0.43 ± 0.14 % ID/g | % ID/g (72 h) Lung ([3]; Lung, 72 h): 0.13 ± 0.1 % ID/g | % ID/g (1 h) Muscle ([3]; Muscle, 1 h): 1.1 ± 0.3 % ID/g | % ID/g (4 h) Muscle ([3]; Muscle, 4 h): 0.27 ± 0.2 % ID/g | % ID/g (24 h) Muscle ([3]; Muscle, 24 h): 0.34 ± 0.3 % ID/g | % ID/g (72 h) Muscle ([3]; Muscle, 72 h): 0.011 ± 0.01 % ID/g | % ID/g (1 h) Pancreas ([3]; Pancreas, 1 h): 0.67 ± 0.28 % ID/g | % ID/g (4 h) Pancreas ([3]; Pancreas, 4 h): 0.24 ± 0.22 % ID/g | % ID/g (24 h) Pancreas ([3]; Pancreas, 24 h): 0.29 ± 0.21 % ID/g | % ID/g (72 h) Pancreas ([3]; Pancreas, 72 h): 0.02 ± 0.01 % ID/g | % ID/g (1 h) Spleen ([3]; Spleen, 1 h): 0.63 ± 0.19 % ID/g | % ID/g (4 h) Spleen ([3]; Spleen, 4 h): 0.58 ± 0.15 % ID/g | % ID/g (24 h) Spleen ([3]; Spleen, 24 h): 0.23 ± 0.11 % ID/g | % ID/g (72 h) Spleen ([3]; Spleen, 72 h): 0.06 ± 0.01 % ID/g | % ID/g (1 h) Stomach ([3]; Stomach, 1 h): 1.01 ± 0.82 % ID/g | % ID/g (4 h) Stomach ([3]; Stomach, 4 h): 0.58 ± 0.59 % ID/g | % ID/g (24 h) Stomach ([3]; Stomach, 24 h): 0.21 ± 0.08 % ID/g | % ID/g (72 h) Stomach ([3]; Stomach, 72 h): 0.04 ± 0.01 % ID/g | % ID/g (1 h) Tumor ([3]; Tumor, 1 h): 15.27 ± 8.72 % ID/g | % ID/g (4 h) Tumor ([3]; Tumor, 4 h): 19.97 ± 10.42 % ID/g | % ID/g (24 h) Tumor ([3]; Tumor, 24 h): 22.83 ± 1.14 % ID/g | % ID/g (72 h) Tumor ([3]; Tumor, 72 h): 18.07 ± 0.98 % ID/g | ratio of tumor AUC verse normal organ AUC ([3]; compared to ^177Lu—C2): significantly improved
SMILES: COc1cccc(OC)c1-c1cc(C(=O)NC2(C(=O)O)C3CC4CC(C3)CC2C4)nn1-c1ccc(OCCCN(C)CCCN(C)C(=O)CN2CCN(CC(=O)[O-])CCN(CC(=O)[O-])CCN(CC(=O)[O-])CC2)cc1C(C)C.[177Lu+3] (stereo not drawn) [^177Lu-I-7]
stability of the labeled complex [2]: remained stable and no significant degradation was detected
